Test [1] relates to human hepatic cell line (HepG2 ATCC HB-8065). The test can be described thus: Human cell viability assay (CellTiter-Glo). The settings on record: Homo sapiens, HepG2, 24 h, read-out: IC50 (μg/mL) HepG2. On the technique in general: In ATP-based viability assays light output follows the ATP content of the culture.
In test [2] the test system is fluoroquinolone-resistant Enterococcus faecium ATCC 700221. The test can be described thus: MIC, broth microdilution (CLSI) versus planktonic bacteria. Format: cell-based. The settings on record: ATCC700221, 16-20 h, mode of three independent experiments, read-out: MIC, Efm ATCC 700221. On the technique in general: In broth dilution the organism is exposed to a series of concentrations in liquid medium.

Test [3] concerns Enterococcus faecalis ATCC 29212. The test is described as above. The test is classed as cell-based. The settings on record: ATCC29212, 16-20 h, mode of three independent experiments, read-out: MIC, Ef ATCC 29212.
The test system of test [4] is Acinetobacter baumannii ATCC 19606. The test is described as above. Format: cell-based. The settings on record: ATCC19606; Acinetobacter baumannii ATCC 19606; 16-20 h; mode of three independent experiments; read-out: MIC, Ab ATCC 19606.
Another test has as its system E. coli MG1655 D87G. The test is classed as cell-based, Escherichia coli. The settings on record: compared to the isogenic parent strain E. coli MG1655; D87G mutation on DNA gyrase subunit GyrA.
The test system of another test is E. coli MG1655 S83L. Format: cell-based, Escherichia coli. The settings on record: compared to the isogenic parent strain E. coli MG1655; S83L mutation on DNA gyrase subunit GyrA.
The test system of test [5] is Escherichia coli ATCC 25922. The test can be described thus: MIC, broth microdilution (CLSI) versus planktonic bacteria. The settings on record: ATCC25922; Escherichia coli ATCC 25922; 16-20 h; mode of three independent experiments; read-out: MIC, Ec ATCC 25922. Format: cell-based.
Test [6] has as its system Streptococcus pneumoniae ATCC 49619. The description is as above. The test is classed as cell-based. To be noted: ATCC49619; Streptococcus pneumoniae ATCC 49619; 16-20 h; mode of three independent experiments; read-out: MIC, Sp ATCC 49619.
The test system of test [7] is Staphylococcus aureus ATCC 29213. The description is as above. Format: cell-based. To be noted: ATCC29213; Staphylococcus aureus ATCC 29213; 16-20 h; mode of three independent experiments; read-out: MIC, Sa ATCC 29213.
Test [8] has as its system Pseudomonas aeruginosa ATCC 27853. Described as above. The test is classed as cell-based. To be noted: ATCC27853; Pseudomonas aeruginosa ATCC 27853; 16-20 h; mode of three independent experiments; read-out: MIC, Pa ATCC 27853.
The test system of test [9] is Haemophilus influenzae ATCC 49247. Described as above. Format: cell-based. To be noted: ATCC49247; Haemophilus influenzae ATCC 49247; 16-20 h; mode of three independent experiments; read-out: MIC, Hi ATCC 49247.
Test [10] deals with Enterococcus faecium ATCC 19434. Described as above. The test is classed as cell-based. The settings on record: ATCC19434, 16-20 h, mode of three independent experiments, read-out: MIC, Efm ATCC 19434.
The test system of test [11] is Mycobacterium smegmatis ATCC 19420. Described as above. The test is classed as cell-based. To be noted: Mycolicibacterium smegmatis, ATCC19420, 16-20 h, mode of three independent experiments, read-out: MIC, Ms ATCC 19420.
A further test relates to E. coli NCTC 13476. The test is described as above. The test is classed as cell-based. The settings on record: NCTC13476; Escherichia coli NCTC 13476; 16-20 h; mode of three independent experiments; read-out: MIC, Ec NCTC 13476.
The test system of test [12] is Acinetobacter baumannii NCTC 13420. The test is described as above. The settings on record: NCTC13420; Acinetobacter baumannii NCTC 13420; 16-20 h; mode of three independent experiments; read-out: MIC, Ab NCTC 13420. Format: cell-based.
The next test deals with E. coli MG1655. The description is as above. Format: cell-based, Escherichia coli. The settings on record: Escherichia coli, MG1655, read-out: MIC, Ec MG1655 WT.
The subject of test [13] is Enterobacter cloacae NCTC 13406. The description is as above. The settings on record: NCTC13406; Enterobacter cloacae NCTC 13406; 16-20 h; mode of three independent experiments; read-out: MIC, Ecl NCTC 13406. Format: cell-based.
The subject of test [14] is Neisseria meningitidis ATCC 13090. The test is described as above. Format: cell-based. To be noted: ATCC13090, 16-20 h, mode of three independent experiments.
The subject of another test is E. coli ATCC BAA-2452. The test is described as above. Format: cell-based. The settings on record: Escherichia coli ATCC BAA-2452; 16-20 h; mode of three independent experiments; read-out: MIC, Ec ATCC BAA 2452.
The test system of test [15] is Gram-negative and Gram-positive bacterial strains. The test is classed as cell-based. The settings on record: strain panel of Table 1.
For a further test, the system named is Bacillus anthracis Ames. In words: microbe, parasite or virus in culture. To be noted: 24 h, read-out: MIC, Bacillus anthracis Ames. The test is classed as cell-based.
The subject of test [16] is Burkholderia mallei China 7. The test can be described thus: microbe, parasite or virus in culture. Format: cell-based. To be noted: CHINA7, 24 h, read-out: MIC, Burkholderia mallei China 7.
For test [17], the system named is Burkholderia pseudomallei K96243. In words: microbe, parasite or virus in culture. To be noted: K96243, 24 h, read-out: MIC, Burkholderia pseudomallei K96243. Format: cell-based.
Test [18] relates to Francisella tularensis SCHU S4. In words: microbe, parasite or virus in culture. The test is classed as cell-based. To be noted: SCHUS4, 38 h, read-out: MIC, Francisella tularensis SCHU S4.
The test system of test [19] is Burkholderia pseudomallei 1026b. In words: microbe, parasite or virus in culture. Format: cell-based. The settings on record: 24 h, read-out: MIC, Burkholderia pseudomallei 1026b.
The subject of another test is Yersinia pestis CO92. The test can be described thus: microbe, parasite or virus in culture. The test is classed as cell-based. The settings on record: CO92, read-out: MIC, Yersinia pestis CO92.
The subject of test [20] is Burkholderia pseudomallei DD503. In words: microbe, parasite or virus in culture. Format: cell-based. The settings on record: DD503, 24 h, read-out: MIC, Burkholderia pseudomallei DD503.

Values after ≈ are worked out from the molar mass of the structure shown.

For the molecule `COc1ccc2ccc(=O)n(CCN[C@@H]3CC[C@@H]4[C@@H](C3)OC(=O)N4c3ccc4c(n3)NC(=O)CO4)c2n1` [Compound 1, 1-(2-{[(3aR,6R,7aR)-2-oxo-3-{3-oxo-2H,3H,4H-pyrido[3,2-b][1,4]oxazin-6-yl}-octahydro-1,3-benzoxazol-6-yl]amino}ethyl)-7-methoxy-1,2-dihydro-1,8-naphthyridin-2-one], the IC50 in test [1] was > 100 µg/mL. The MIC in test [2], in test [3], in test [4], in [5], in [6] and in test [7] was < 1 µg/mL each time. The MIC (in test [8]; in test [9]; in test [10]; in [11]; with E. coli NCTC 13476; in [12]) was < 1 µg/mL in each case. Moreover, the MIC (with E. coli MG1655; in test [13]; in [14]; in the test with E. coli ATCC BAA-2452) was < 1 µg/mL each time. The “Fold increase in MIC, E. coli MG1655 D87G” value in the test with E. coli MG1655 D87G was determined as 1 fold. Moreover, the “Fold increase in MIC, E. coli MG1655 S83L” value in the test on E. coli MG1655 S83L came to 1 fold. In addition, in test [15], the “activity against both Gram-negative and Gram-positive bacteria (in words)” value was “excellent activity”.
As to `COc1ncc2ccc(=O)n(CCN[C@@H]3CC[C@@H]4[C@@H](C3)OC(=O)N4c3ccc4c(n3)NC(=O)CO4)c2n1` [Compound 2, (3aR,6R,7aR)-6-[(2-{2-methoxy-7-oxo-7H,8H-pyrido[2,3-d]pyrimidin-8-yl}ethyl)amino]-3-(3-oxo-2H,3H,4H-pyrido[3,2-b][1,4]oxazin-6-yl}-octahydro-1,3-benzoxazol-2-one], the IC50 in test [1] is > 100 µg/mL. The MIC with Bacillus anthracis Ames is < 1 µg/mL; in test [4], < 1 µg/mL; in test [16], 1 to 4 µg/mL (≈ 1.97 to 7.88 µM); in [17], 1 to 4 µg/mL (≈ 1.97 to 7.88 µM); in [5], < 1 µg/mL; in [6], < 1 µg/mL. Moreover, the MIC was < 1 µg/mL in test [7]; 1 to 10 µg/mL (≈ 1.97 to 19.7 µM) in test [8]; < 1 µg/mL in test [9]; 1 to 4 µg/mL (≈ 1.97 to 7.88 µM) in test [18]; < 1 µg/mL in test [11]; 1 to 4 µg/mL (≈ 1.97 to 7.88 µM) in [19]. The MIC is < 1 µg/mL in the test with Yersinia pestis CO92; 1 to 10 µg/mL (≈ 1.97 to 19.7 µM) in the test with E. coli NCTC 13476; < 1 µg/mL in [12]; < 1 µg/mL in the test with E. coli MG1655; 1 to 4 µg/mL (≈ 1.97 to 7.88 µM) in test [20]; < 1 µg/mL in [13]. Moreover, the MIC (in test [14]; in the test with E. coli ATCC BAA-2452) was < 1 µg/mL in each case. Moreover, in the test with E. coli MG1655 D87G, the “Fold increase in MIC, E. coli MG1655 D87G” value is given as 1 fold. Also, in the test with E. coli MG1655 S83L, the “Fold increase in MIC, E. coli MG1655 S83L” value came out at 1 fold.
Take `COc1ccc2ccc(=O)n(CCCN[C@@H]3CC[C@@H]4[C@@H](C3)OC(=O)N4c3ccc4c(n3)NC(=O)CO4)c2n1` [Compound 76, 1-(3-{[(3aR,6R,7aR)-2-oxo-3-{3-oxo-2H,3H,4H-pyrido[3,2-b][1,4]oxazin-6-yl}-octahydro-1,3-benzoxazol-6-yl]amino}propyl)-7-methoxy-1,2-dihydro-1,8-naphthyridin-2-one]: the IC50 in test [1] lay within 10 to 100 µg/mL (≈ 19.2 to 192 µM). Besides, the MIC in test [2], in test [3], in [4], in test [5], in test [6] and in test [7] was < 1 µg/mL throughout. The MIC (in test [8]; in test [9]; in test [10]; in the test with E. coli NCTC 13476; in test [12]; in the test on E. coli MG1655) was < 1 µg/mL each time. Besides, the MIC (in test [13]; in the test on E. coli ATCC BAA-2452) was < 1 µg/mL in each case. Further, in the test with E. coli MG1655 D87G, the “Fold increase in MIC, E. coli MG1655 D87G” value came to 2 fold. Besides, the “Fold increase in MIC, E. coli MG1655 S83L” value with E. coli MG1655 S83L is 2 fold. Besides, the “activity against both Gram-negative and Gram-positive bacteria (in words)” value in [15] is “excellent activity”.
With `C[C@H]1c2cccc(O)c2C(=O)C2=C(O)[C@]3(O)C(=O)C(C(N)=O)=C(O)[C@@H](N(C)C)[C@@H]3[C@@H](O)[C@@H]21` [DOX, doxycycline, reference compound], the MIC in the test on Bacillus anthracis Ames is < 1 µg/mL; in [16], < 1 µg/mL; in test [17], 1 to 4 µg/mL (≈ 2.25 to 9 µM); in [18], < 1 µg/mL; in [19], 1 to 4 µg/mL (≈ 2.25 to 9 µM); in the test on Yersinia pestis CO92 it was 1 to 4 µg/mL (≈ 2.25 to 9 µM). Further, the MIC in test [20] was in the range of 1 to 4 µg/mL (≈ 2.25 to 9 µM).
